In the NIST ThermoML archive (doi:10.1016/j.fluid.2012.06.028):

Experiment: xn = mol fraction of the nth substance listed
Settings: Liquid, Vibrating tube method

CCCCCCCCCCCCCC [tetradecane] + CCCCCCCCCC
mass density [kg/m3]
Settings | 1000 kPa | 2000 kPa | 3000 kPa | 4000 kPa | 5000 kPa | 6000 kPa | 7000 kPa | 8000 kPa | 9000 kPa | 10000 kPa
295 K, x2 = 0.5 | 746.3 | – | 747.6 | 748.3 | 749 | 749.7 | – | 751.1 | 751.7 | –
295 K, x2 = 0.75 | 739.2 | 739.9 | 740.7 | 741.4 | 742.1 | 742.8 | 743.5 | 744.2 | 745 | 745.7
295.5 K, x2 = 0.25 | 753.2 | 753.9 | 754.6 | 755.3 | 756 | 756.7 | 757.4 | 758 | 758.7 | 759.4
